Experimental data as given in ChEMBL document CHEMBL4507302, “Data for DCP probe TP-020” (2021).

Assays:
[1] = tested on: Epidermal growth factor receptor (Homo sapiens), P00533 [G719C]; settings: Compound concentration 1000.0 nM
[2] = tested on: Tyrosine-protein kinase ABL1 (Homo sapiens), P00519 [H396P]; settings: Compound concentration 1000.0 nM
[3] = target: Histamine H4 receptor (Homo sapiens) (UniProt Q9H3N8); settings: Compound concentration 10.0 uM
[4] = target: Alpha-1D adrenergic receptor (Homo sapiens) (UniProt P25100); settings: Compound concentration 10.0 uM
[5] = target: RAF proto-oncogene serine/threonine-protein kinase (Homo sapiens) (UniProt P04049); settings: Compound concentration 1000.0 nM
[6] = target: Interleukin-1 receptor-associated kinase 3 (Homo sapiens) (UniProt Q9Y616); settings: Compound concentration 1000.0 nM
Sequence of Interleukin-1 receptor-associated kinase 3 (Homo sapiens) (Q9Y616 whole entry): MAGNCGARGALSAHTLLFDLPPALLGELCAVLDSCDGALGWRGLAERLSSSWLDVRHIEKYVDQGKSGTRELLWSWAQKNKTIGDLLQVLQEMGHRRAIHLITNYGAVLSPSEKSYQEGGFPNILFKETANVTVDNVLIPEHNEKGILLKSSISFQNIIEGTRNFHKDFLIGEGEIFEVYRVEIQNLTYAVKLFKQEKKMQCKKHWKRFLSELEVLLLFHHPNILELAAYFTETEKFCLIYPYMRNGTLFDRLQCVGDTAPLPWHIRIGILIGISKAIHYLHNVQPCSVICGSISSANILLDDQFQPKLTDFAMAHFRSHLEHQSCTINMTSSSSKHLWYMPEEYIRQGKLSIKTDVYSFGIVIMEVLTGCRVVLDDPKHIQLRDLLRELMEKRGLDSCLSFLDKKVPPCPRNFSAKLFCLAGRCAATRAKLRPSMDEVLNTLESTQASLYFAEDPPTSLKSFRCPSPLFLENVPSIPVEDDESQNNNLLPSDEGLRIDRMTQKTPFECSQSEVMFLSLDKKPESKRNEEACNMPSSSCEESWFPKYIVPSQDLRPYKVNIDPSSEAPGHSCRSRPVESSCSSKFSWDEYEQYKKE

[7] = target: NUAK family SNF1-like kinase 1 (Homo sapiens) (UniProt O60285); settings: Compound concentration 1000.0 nM
[8] = target: Mitogen-activated protein kinase 12 (Homo sapiens) (UniProt P53778); settings: Compound concentration 1000.0 nM
Sequence of Mitogen-activated protein kinase 12 (Homo sapiens) (P53778 whole entry): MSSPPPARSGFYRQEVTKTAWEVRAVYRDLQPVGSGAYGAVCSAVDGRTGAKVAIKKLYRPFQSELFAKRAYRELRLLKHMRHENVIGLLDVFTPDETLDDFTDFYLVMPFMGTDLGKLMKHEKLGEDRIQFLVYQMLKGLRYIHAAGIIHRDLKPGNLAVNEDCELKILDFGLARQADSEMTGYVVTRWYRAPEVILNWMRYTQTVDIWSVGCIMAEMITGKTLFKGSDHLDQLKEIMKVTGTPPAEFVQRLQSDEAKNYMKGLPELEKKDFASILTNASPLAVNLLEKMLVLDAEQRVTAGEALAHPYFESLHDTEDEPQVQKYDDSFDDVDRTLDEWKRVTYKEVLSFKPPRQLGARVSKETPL

[9] = target: 5-hydroxytryptamine receptor 1E (Homo sapiens) (UniProt P28566); settings: Compound concentration 10.0 uM
[10] = target: Casein kinase I isoform gamma-3 (Homo sapiens) (UniProt Q9Y6M4); settings: Compound concentration 1000.0 nM
[11] = target: Calcium/calmodulin-dependent protein kinase kinase 2 (Homo sapiens) (UniProt Q96RR4); settings: Compound concentration 1000.0 nM
[12] = tested on: Epidermal growth factor receptor (Homo sapiens), P00533 [UNDEFINED MUTATION]; settings: Compound concentration 1000.0 nM
[13] = target: Calcium/calmodulin-dependent protein kinase type II subunit gamma (Homo sapiens) (UniProt Q13555); settings: Compound concentration 1000.0 nM
[14] = target: Testis-specific serine/threonine-protein kinase 1 (Homo sapiens) (UniProt Q9BXA7); settings: Compound concentration 1000.0 nM
[15] = target: 5'-AMP-activated protein kinase catalytic subunit alpha-2 (Homo sapiens) (UniProt P54646); settings: Compound concentration 1000.0 nM
[16] = target: Cyclin-dependent kinase 19 (Homo sapiens) (UniProt Q9BWU1); settings: Compound concentration 1000.0 nM
Sequence of Cyclin-dependent kinase 19 (Homo sapiens) (Q9BWU1 whole entry): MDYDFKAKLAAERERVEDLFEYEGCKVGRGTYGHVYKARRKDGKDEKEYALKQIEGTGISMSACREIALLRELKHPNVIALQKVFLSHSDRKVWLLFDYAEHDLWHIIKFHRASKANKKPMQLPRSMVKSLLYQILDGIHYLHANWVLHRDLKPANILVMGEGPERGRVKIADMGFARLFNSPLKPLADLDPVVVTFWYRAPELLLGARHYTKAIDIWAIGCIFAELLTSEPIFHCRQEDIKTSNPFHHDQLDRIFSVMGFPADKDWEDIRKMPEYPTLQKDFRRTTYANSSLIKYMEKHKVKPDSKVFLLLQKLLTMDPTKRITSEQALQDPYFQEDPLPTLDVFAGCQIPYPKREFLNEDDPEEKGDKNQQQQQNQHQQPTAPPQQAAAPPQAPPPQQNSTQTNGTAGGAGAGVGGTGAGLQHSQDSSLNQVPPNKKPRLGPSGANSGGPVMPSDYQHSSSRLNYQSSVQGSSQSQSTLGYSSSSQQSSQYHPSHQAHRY

[17] = target: Tyrosine-protein kinase FRK (Homo sapiens) (UniProt P42685); settings: Compound concentration 1000.0 nM
[18] = target: Casein kinase I isoform alpha (Homo sapiens) (UniProt P48729); settings: Compound concentration 1000.0 nM
[19] = target: Ephrin type-B receptor 4 (Homo sapiens) (UniProt P54760); settings: Compound concentration 1000.0 nM
[20] = target: Tyrosine-protein kinase JAK2 (Homo sapiens) (UniProt O60674); settings: Compound concentration 1000.0 nM
[21] = target: Dual serine/threonine and tyrosine protein kinase (Homo sapiens) (UniProt Q6XUX3); settings: Compound concentration 1000.0 nM
[22] = target: D(2) dopamine receptor (Homo sapiens) (UniProt P14416); settings: Compound concentration 10.0 uM
Sequence of D(2) dopamine receptor (Homo sapiens) (P14416 whole entry): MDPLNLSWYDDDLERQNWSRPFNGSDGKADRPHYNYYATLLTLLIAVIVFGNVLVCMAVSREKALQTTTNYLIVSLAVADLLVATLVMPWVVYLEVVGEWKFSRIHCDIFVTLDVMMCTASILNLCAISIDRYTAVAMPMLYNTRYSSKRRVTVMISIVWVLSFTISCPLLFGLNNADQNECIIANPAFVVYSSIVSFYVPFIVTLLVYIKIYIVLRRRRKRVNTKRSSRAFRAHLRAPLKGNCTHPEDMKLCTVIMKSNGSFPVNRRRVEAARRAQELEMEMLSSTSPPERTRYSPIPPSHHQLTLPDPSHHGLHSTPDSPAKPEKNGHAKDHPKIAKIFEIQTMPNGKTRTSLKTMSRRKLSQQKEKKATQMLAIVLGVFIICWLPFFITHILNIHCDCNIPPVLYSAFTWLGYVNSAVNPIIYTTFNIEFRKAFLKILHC

[23] = target: Tyrosine-protein kinase Fgr (Homo sapiens) (UniProt P09769); settings: Compound concentration 1000.0 nM
[24] = target: Focal adhesion kinase 1 (Homo sapiens) (UniProt Q05397); settings: Compound concentration 1000.0 nM
[25] = target: Serine/threonine-protein kinase TAO1 (Homo sapiens) (UniProt Q7L7X3); settings: Compound concentration 1000.0 nM
Sequence of Serine/threonine-protein kinase TAO1 (Homo sapiens) (Q7L7X3 whole entry): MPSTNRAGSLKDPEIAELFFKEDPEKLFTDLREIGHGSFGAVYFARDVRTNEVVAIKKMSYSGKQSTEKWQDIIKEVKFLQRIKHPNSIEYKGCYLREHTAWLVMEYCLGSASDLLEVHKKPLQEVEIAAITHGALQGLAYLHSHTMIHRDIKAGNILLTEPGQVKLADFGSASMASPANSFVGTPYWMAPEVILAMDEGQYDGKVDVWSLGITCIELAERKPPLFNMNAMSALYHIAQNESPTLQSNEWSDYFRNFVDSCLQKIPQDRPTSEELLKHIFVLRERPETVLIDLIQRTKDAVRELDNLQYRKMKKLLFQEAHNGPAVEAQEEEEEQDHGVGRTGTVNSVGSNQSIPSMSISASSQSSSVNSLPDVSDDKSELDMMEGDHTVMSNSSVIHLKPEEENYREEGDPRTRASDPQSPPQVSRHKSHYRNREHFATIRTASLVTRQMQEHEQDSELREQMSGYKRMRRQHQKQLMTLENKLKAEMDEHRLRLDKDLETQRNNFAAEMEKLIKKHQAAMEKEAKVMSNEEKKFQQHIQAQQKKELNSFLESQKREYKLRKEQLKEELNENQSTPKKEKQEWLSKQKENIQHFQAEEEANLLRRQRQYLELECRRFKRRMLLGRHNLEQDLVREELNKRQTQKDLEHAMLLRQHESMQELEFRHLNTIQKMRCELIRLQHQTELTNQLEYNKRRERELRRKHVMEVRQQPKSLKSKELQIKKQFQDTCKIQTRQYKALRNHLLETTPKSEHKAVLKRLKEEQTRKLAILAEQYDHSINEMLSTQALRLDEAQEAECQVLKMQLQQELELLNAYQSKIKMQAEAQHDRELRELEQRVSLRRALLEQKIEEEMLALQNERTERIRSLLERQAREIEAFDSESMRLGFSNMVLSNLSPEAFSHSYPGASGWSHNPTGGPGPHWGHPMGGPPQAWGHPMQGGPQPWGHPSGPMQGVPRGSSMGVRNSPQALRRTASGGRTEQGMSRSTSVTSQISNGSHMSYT

[26] = target: Myosin-IIIb (Homo sapiens) (UniProt Q8WXR4); settings: Compound concentration 1000.0 nM
[27] = target: Dual specificity protein kinase CLK2 (Homo sapiens) (UniProt P49760); settings: Compound concentration 1000.0 nM
[28] = target: Dual specificity tyrosine-phosphorylation-regulated kinase 1A (Homo sapiens) (UniProt Q13627); settings: Compound concentration 1000.0 nM
[29] = target: Serine/threonine-protein kinase D2 (Homo sapiens) (UniProt Q9BZL6); settings: Compound concentration 1000.0 nM
[30] = target: Mitogen-activated protein kinase kinase kinase 10 (Homo sapiens) (UniProt Q02779); settings: Compound concentration 1000.0 nM
[31] = target: Tyrosine-protein kinase receptor UFO (Homo sapiens) (UniProt P30530); settings: Compound concentration 1000.0 nM
[32] = tested on: Phosphatidylinositol 4,5-bisphosphate 3-kinase catalytic subunit alpha isoform (Homo sapiens), P42336 [Q546K]; settings: Compound concentration 1000.0 nM
[33] = target: 1-phosphatidylinositol 3-phosphate 5-kinase (Homo sapiens) (UniProt Q9Y2I7); settings: Compound concentration 1000.0 nM
Sequence of 1-phosphatidylinositol 3-phosphate 5-kinase (Homo sapiens) (Q9Y2I7 whole entry): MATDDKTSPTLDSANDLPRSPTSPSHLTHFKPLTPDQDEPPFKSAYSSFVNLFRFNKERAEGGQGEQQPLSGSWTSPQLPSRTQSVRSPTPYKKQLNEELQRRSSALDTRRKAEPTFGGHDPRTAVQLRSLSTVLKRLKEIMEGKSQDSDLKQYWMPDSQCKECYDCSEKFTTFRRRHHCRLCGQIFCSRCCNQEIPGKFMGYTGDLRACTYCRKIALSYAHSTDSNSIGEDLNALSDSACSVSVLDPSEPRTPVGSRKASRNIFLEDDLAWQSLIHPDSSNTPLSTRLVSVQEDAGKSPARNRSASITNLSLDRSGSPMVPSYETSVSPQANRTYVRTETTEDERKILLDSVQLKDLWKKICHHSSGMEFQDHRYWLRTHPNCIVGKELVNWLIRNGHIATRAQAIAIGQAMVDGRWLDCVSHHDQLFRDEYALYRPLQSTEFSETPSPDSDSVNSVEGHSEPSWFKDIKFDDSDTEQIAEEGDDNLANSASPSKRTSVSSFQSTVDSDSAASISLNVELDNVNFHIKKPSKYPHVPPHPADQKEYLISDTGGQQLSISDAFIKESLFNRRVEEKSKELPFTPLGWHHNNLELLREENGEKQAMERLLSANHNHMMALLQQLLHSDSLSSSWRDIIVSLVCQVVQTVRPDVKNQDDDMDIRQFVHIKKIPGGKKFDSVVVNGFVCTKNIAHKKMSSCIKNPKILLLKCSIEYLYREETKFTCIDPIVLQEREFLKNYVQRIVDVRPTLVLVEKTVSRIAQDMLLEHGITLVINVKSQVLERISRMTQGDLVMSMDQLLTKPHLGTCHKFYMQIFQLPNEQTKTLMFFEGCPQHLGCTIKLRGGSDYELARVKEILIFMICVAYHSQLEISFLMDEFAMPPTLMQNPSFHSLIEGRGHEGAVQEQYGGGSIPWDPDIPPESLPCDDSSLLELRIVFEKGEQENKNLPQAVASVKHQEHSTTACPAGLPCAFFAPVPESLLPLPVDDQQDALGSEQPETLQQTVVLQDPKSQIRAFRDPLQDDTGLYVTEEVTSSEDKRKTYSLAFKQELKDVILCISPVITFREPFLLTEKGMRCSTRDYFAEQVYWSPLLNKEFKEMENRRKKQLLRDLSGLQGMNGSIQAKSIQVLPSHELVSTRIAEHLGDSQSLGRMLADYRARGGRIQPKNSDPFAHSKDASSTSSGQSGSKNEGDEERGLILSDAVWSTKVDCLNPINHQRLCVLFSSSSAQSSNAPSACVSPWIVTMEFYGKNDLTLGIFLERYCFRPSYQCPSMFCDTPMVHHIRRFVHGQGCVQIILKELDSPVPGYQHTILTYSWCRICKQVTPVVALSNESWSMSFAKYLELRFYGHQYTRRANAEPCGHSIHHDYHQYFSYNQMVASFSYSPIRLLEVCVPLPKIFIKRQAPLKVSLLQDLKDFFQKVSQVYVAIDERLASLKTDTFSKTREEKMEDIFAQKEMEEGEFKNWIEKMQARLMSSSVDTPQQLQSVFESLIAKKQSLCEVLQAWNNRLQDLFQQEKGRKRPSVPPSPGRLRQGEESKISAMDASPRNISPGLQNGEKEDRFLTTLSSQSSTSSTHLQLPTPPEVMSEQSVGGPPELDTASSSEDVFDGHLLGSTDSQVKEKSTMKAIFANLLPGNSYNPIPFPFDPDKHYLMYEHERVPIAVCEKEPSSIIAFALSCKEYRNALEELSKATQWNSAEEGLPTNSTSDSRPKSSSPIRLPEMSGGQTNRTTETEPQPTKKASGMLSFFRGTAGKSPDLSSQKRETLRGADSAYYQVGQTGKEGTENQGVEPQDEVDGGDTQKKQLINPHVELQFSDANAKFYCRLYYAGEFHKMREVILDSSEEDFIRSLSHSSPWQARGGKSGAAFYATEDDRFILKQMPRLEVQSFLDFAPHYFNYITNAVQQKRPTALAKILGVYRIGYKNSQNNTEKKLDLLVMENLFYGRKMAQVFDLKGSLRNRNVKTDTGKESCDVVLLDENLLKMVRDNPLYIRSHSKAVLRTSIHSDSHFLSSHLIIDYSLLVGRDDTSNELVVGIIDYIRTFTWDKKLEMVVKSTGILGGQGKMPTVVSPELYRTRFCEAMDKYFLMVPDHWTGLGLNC

[34] = target: Serine/threonine-protein kinase 24 (Homo sapiens) (UniProt Q9Y6E0); settings: Compound concentration 1000.0 nM
[35] = target: Ribosomal protein S6 kinase alpha-2 (Homo sapiens) (UniProt Q15349); settings: Compound concentration 1000.0 nM
[36] = target: cAMP-dependent protein kinase catalytic subunit PRKX (Homo sapiens) (UniProt P51817); settings: Compound concentration 1000.0 nM
[37] = target: Mitogen-activated protein kinase kinase kinase kinase 2 (Homo sapiens) (UniProt Q12851); settings: Compound concentration 1000.0 nM
[38] = target: Interferon-induced, double-stranded RNA-activated protein kinase (Homo sapiens) (UniProt P19525); settings: Compound concentration 1000.0 nM
[39] = target: Serine/threonine-protein kinase PRP4 homolog (Homo sapiens) (UniProt Q13523); settings: Compound concentration 1000.0 nM
[40] = target: RAC-beta serine/threonine-protein kinase (Homo sapiens) (UniProt P31751); settings: Compound concentration 1000.0 nM
[41] = target: Phosphatidylinositol 3-kinase C2 domain-containing subunit gamma (Homo sapiens) (UniProt O75747); settings: Compound concentration 1000.0 nM
[42] = target: Mitogen-activated protein kinase 1 (Homo sapiens) (UniProt P28482); settings: Compound concentration 1000.0 nM
[43] = target: G protein-coupled receptor kinase 4 (Homo sapiens) (UniProt P32298); settings: Compound concentration 1000.0 nM
[44] = tested on: Mast/stem cell growth factor receptor Kit (Homo sapiens), P10721 [A829P]; settings: Compound concentration 1000.0 nM
[45] = target: Serine/threonine-protein kinase N1 (Homo sapiens) (UniProt Q16512); settings: Compound concentration 1000.0 nM

Question: How did the residual activity [1] turn out when Cn1nc(C(F)(F)F)cc1-c1cnc(N2CCc3cc(S(=O)(=O)Nc4c(F)cc(Cl)cc4F)cc(N4CCCC4=O)c32)nc1 [TP-020] was run?
Answer: Its residual activity is 100%.

Question: What about the residual activity [2] of the same molecule?
Answer: Its residual activity is 87%.

Question: What about the inhibition [3] of the same molecule?
Answer: Its inhibition is 10.9%.

Question: What about the inhibition [4] of the same molecule?
Answer: The inhibition was -4.04%.

Question: What about the residual activity [5] of the same molecule?
Answer: Its residual activity is 100%.

Question: What about the residual activity [6] of the same molecule?
Answer: Its residual activity is 100%.

Question: What about the residual activity [7] of the same molecule?
Answer: The residual activity was 89%.

Question: And the residual activity [8]?
Answer: The residual activity was 83%.

Question: What about the inhibition [9] of the same molecule?
Answer: The inhibition was 14.8%.

Question: And the residual activity [10]?
Answer: Its residual activity is 81%.

Question: And the residual activity [11]?
Answer: Its residual activity is 93%.

Question: What about the residual activity [12] of the same molecule?
Answer: The residual activity was 100%.

Question: And the residual activity [13]?
Answer: The residual activity was 95%.

Question: And the residual activity [14]?
Answer: Its residual activity is 100%.

Question: What about the residual activity [15] of the same molecule?
Answer: The residual activity was 97%.

Question: And the residual activity [16]?
Answer: Its residual activity is 100%.

Question: And the residual activity [17]?
Answer: Its residual activity is 83%.

Question: And the residual activity [18]?
Answer: Its residual activity is 86%.

Question: What about the residual activity [19] of the same molecule?
Answer: Its residual activity is 99%.

Question: What about the residual activity [20] of the same molecule?
Answer: Its residual activity is 82%.

Question: What about the residual activity [21] of the same molecule?
Answer: Its residual activity is 83%.

Question: And the inhibition [22]?
Answer: The inhibition was -0.24%.

Question: What about the residual activity [23] of the same molecule?
Answer: Its residual activity is 90%.

Question: And the residual activity [24]?
Answer: Its residual activity is 98%.

Question: And the residual activity [25]?
Answer: Its residual activity is 99%.

Question: And the residual activity [26]?
Answer: Its residual activity is 100%.

Question: What about the residual activity [27] of the same molecule?
Answer: The residual activity was 86%.

Question: And the residual activity [28]?
Answer: The residual activity was 93%.

Question: What about the residual activity [29] of the same molecule?
Answer: The residual activity was 95%.

Question: And the residual activity [30]?
Answer: The residual activity was 93%.

Question: And the residual activity [31]?
Answer: Its residual activity is 93%.

Question: What about the residual activity [32] of the same molecule?
Answer: Its residual activity is 82%.

Question: And the residual activity [33]?
Answer: Its residual activity is 88%.

Question: What about the residual activity [34] of the same molecule?
Answer: The residual activity was 90%.

Question: What about the residual activity [35] of the same molecule?
Answer: Its residual activity is 100%.

Question: What about the residual activity [36] of the same molecule?
Answer: Its residual activity is 97%.

Question: And the residual activity [37]?
Answer: Its residual activity is 95%.

Question: And the residual activity [38]?
Answer: Its residual activity is 100%.

Question: And the residual activity [39]?
Answer: The residual activity was 100%.

Question: What about the residual activity [40] of the same molecule?
Answer: Its residual activity is 100%.

Question: And the residual activity [41]?
Answer: Its residual activity is 94%.

Question: What about the residual activity [42] of the same molecule?
Answer: The residual activity was 100%.

Question: What about the residual activity [43] of the same molecule?
Answer: Its residual activity is 100%.

Question: What about the residual activity [44] of the same molecule?
Answer: Its residual activity is 80%.

Question: And the residual activity [45]?
Answer: The residual activity was 100%.

Question: What does the source list for Nc1cnc(N2CCc3cc(S(=O)(=O)Nc4c(F)cc(Cl)cc4F)cc(N4CCCC4=O)c32)nc1?
Answer: residual activity [1]: 100%; residual activity [2]: 86%; inhibition [3]: -0.37%; inhibition [4]: -2.31%; residual activity [5]: 79%; residual activity [6]: 89%; residual activity [7]: 100%; residual activity [8]: 100%; inhibition [9]: -4.55%; residual activity [10]: 78%; residual activity [11]: 100%; residual activity [12]: 74%; residual activity [13]: 100%; residual activity [14]: 100%; residual activity [15]: 100%; residual activity [16]: 100%; residual activity [17]: 62%; residual activity [18]: 100%; residual activity [19]: 100%; residual activity [20]: 100%; residual activity [21]: 100%; inhibition [22]: -0.42%; residual activity [23]: 100%; residual activity [24]: 99%; residual activity [25]: 80%; residual activity [26]: 100%; residual activity [27]: 100%; residual activity [28]: 80%; residual activity [29]: 100%; residual activity [30]: 75%; residual activity [31]: 69%; residual activity [32]: 78%; residual activity [33]: 100%; residual activity [34]: 100%; residual activity [35]: 88%; residual activity [36]: 99%; residual activity [37]: 90%; residual activity [38]: 41%; residual activity [39]: 76%; residual activity [40]: 100%; residual activity [41]: 78%; residual activity [42]: 100%; residual activity [43]: 100%; residual activity [44]: 100%; residual activity [45]: 95%
